#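 These data come from cells grown in 96-well plates and exposed to compound for 48 hours at five concentrations. The concentration for full growth arrest is given as TGI.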
# Columns and labels:
# Assay in all cases: DTP human tumour cell line panel, 48 h
# [1] = system: 786-0 renal
# [2] = system: A498 renal
# [3] = system: A549 NSCLC
# [4] = system: ACHN renal
# [5] = system: BT-549 breast
# [6] = system: CAKI-1 renal
# [7] = system: CCRF-CEM leukemia
# [8] = system: COLO 205 colon
# [9] = system: DU-145 prostate
# [10] = system: EKVX NSCLC
# [11] = system: HCC-2998 colon
# [12] = system: HCT-116 colon
# [13] = system: HCT-15 colon
# [14] = system: HL-60(TB) leukemia
# [15] = system: HOP-62 NSCLC
# [16] = system: HOP-92 NSCLC
# [17] = system: HS 578T breast
# [18] = system: HT29 colon
# [19] = system: IGROV1 ovarian
# [20] = system: K-562 leukemia
# [21] = system: KM12 colon
# [22] = system: LOX IMVI melanoma
# [23] = system: M14 melanoma
# [24] = system: MALME-3M melanoma
# [25] = system: MCF7 breast
# [26] = system: MDA-MB-231 breast
# [27] = system: MDA-MB-435
# [28] = system: MDA-N
# [29] = system: MOLT-4 leukemia
# [30] = system: NCI-H226 lung
# [31] = system: NCI-H23 lung
# [32] = system: NCI-H460 lung
# [33] = system: NCI-H522 lung
# [34] = system: NCI/ADR-RES ovarian
# [35] = system: OVCAR-3 ovarian
# [36] = system: OVCAR-4 ovarian
# [37] = system: OVCAR-5 ovarian
# [38] = system: OVCAR-8 ovarian
# [39] = system: PC-3 prostate
# [40] = system: RPMI-8226 leukemia
# [41] = system: SF-268 CNS
# [42] = system: SF-295 CNS
# [43] = system: SF-539 CNS
# [44] = system: SK-MEL-2 melanoma
# [45] = system: SK-MEL-28 melanoma
# [46] = system: SK-MEL-5 melanoma
# [47] = system: SK-OV-3 ovarian
# [48] = system: SN12C renal
# [49] = system: SNB-19 CNS
# [50] = system: SNB-75 CNS
# [51] = system: SR leukemia
# [52] = system: SW-620 colon
# [53] = system: T-47D breast
# [54] = system: TK-10 renal
# [55] = system: U251 CNS
# [56] = system: UACC-257 melanoma
# [57] = system: UACC-62 melanoma
# [58] = system: UO-31 renal
smiles,measurement,setting,value
CN(C)CCCN1c2ccccc2CCc2cccc([N+](=O)[O-])c21,TGI,[1],28.6 µM
same,TGI,[2],37.2 µM
same,TGI,[3],> 100 µM
same,TGI,[4],53.6 µM
same,TGI,[5],61 µM
same,TGI,[6],48.4 µM
same,TGI,[7],14.7 µM
same,TGI,[8],33.9 µM
same,TGI,[9],32.3 µM
same,TGI,[10],> 100 µM
same,TGI,[11],31.5 µM
same,TGI,[12],28.9 µM
same,TGI,[13],29.6 µM
same,TGI,[14],30.1 µM
same,TGI,[15],30 µM
same,TGI,[16],45.5 µM
same,TGI,[17],70.5 µM
same,TGI,[18],29.7 µM
same,TGI,[19],32.3 µM
same,TGI,[20],29.1 µM
same,TGI,[21],30.9 µM
same,TGI,[22],30.2 µM
same,TGI,[23],29.2 µM
same,TGI,[24],32.5 µM
same,TGI,[25],30.7 µM
same,TGI,[26],47.6 µM
same,TGI,[27],30.3 µM
same,TGI,[28],29.7 µM
same,TGI,[29],29.8 µM
same,TGI,[30],69.5 µM
same,TGI,[31],> 100 µM
same,TGI,[32],32.1 µM
same,TGI,[33],30.6 µM
same,TGI,[34],32.9 µM
same,TGI,[35],29.8 µM
same,TGI,[36],45.2 µM
same,TGI,[37],> 100 µM
same,TGI,[38],29.3 µM
same,TGI,[39],34.5 µM
same,TGI,[40],23.8 µM
same,TGI,[41],64.5 µM
same,TGI,[42],30.1 µM
same,TGI,[43],31.6 µM
same,TGI,[44],65.6 µM
same,TGI,[45],26.1 µM
same,TGI,[46],30 µM
same,TGI,[47],85.9 µM
same,TGI,[48],52.9 µM
same,TGI,[49],> 100 µM
same,TGI,[50],24.4 µM
same,TGI,[51],28.5 µM
same,TGI,[52],36 µM
same,TGI,[53],27.8 µM
same,TGI,[54],37.2 µM
same,TGI,[55],32.9 µM
same,TGI,[56],34.7 µM
same,TGI,[57],36.2 µM
same,TGI,[58],41.7 µM
COc1ccc(P2(=S)Oc3ccc(C(c4ccccc4)(c4ccccc4)c4ccccc4)cc3O2)cc1 (centres undefined),TGI,[1],32.2 µM
same,TGI,[2],31.8 µM
same,TGI,[3],30.7 µM
same,TGI,[4],30.5 µM
same,TGI,[5],41.3 µM
same,TGI,[6],33.9 µM
same,TGI,[7],49 µM
same,TGI,[8],34.5 µM
same,TGI,[9],35.1 µM
same,TGI,[10],34.6 µM
same,TGI,[11],30.6 µM
same,TGI,[12],32 µM
same,TGI,[13],34.8 µM
same,TGI,[14],32.1 µM
same,TGI,[15],41.5 µM
same,TGI,[16],32.4 µM
same,TGI,[17],41 µM
same,TGI,[18],33.4 µM
same,TGI,[19],32.1 µM
same,TGI,[20],33.8 µM
same,TGI,[21],28.5 µM
same,TGI,[22],28 µM
same,TGI,[23],27.3 µM
same,TGI,[24],34.8 µM
same,TGI,[25],34.9 µM
same,TGI,[26],38.9 µM
same,TGI,[27],30.1 µM
same,TGI,[28],32.7 µM
same,TGI,[29],41.7 µM
same,TGI,[30],31.6 µM
same,TGI,[31],31.7 µM
same,TGI,[32],34.8 µM
same,TGI,[33],31.9 µM
same,TGI,[34],39.5 µM
same,TGI,[35],31 µM
same,TGI,[36],25.9 µM
same,TGI,[37],33.6 µM
same,TGI,[38],29.8 µM
same,TGI,[39],27.1 µM
same,TGI,[40],48.1 µM
same,TGI,[41],32.2 µM
same,TGI,[42],33.5 µM
same,TGI,[43],34.4 µM
same,TGI,[44],35.3 µM
same,TGI,[45],34.3 µM
same,TGI,[46],36.2 µM
same,TGI,[47],37.5 µM
same,TGI,[48],31.7 µM
same,TGI,[49],29.8 µM
same,TGI,[50],26.8 µM
same,TGI,[51],47.5 µM
same,TGI,[52],34.6 µM
same,TGI,[53],28 µM
same,TGI,[54],33.4 µM
same,TGI,[55],31.9 µM
same,TGI,[56],34.2 µM
same,TGI,[57],26.2 µM
same,TGI,[58],30.8 µM
Cc1ccc2c(c1)C(=O)c1[nH]c3ccc(F)cc3c1CO2,TGI,[1],> 100 µM
same,TGI,[2],> 100 µM
same,TGI,[3],> 100 µM
same,TGI,[4],> 100 µM
same,TGI,[5],> 100 µM
same,TGI,[6],> 100 µM
same,TGI,[7],> 100 µM
same,TGI,[8],> 100 µM
same,TGI,[9],> 100 µM
same,TGI,[10],> 100 µM
same,TGI,[11],> 100 µM
same,TGI,[12],> 100 µM
same,TGI,[13],> 100 µM
same,TGI,[14],> 100 µM
same,TGI,[15],36 µM
same,TGI,[16],> 100 µM
same,TGI,[17],58.1 µM
same,TGI,[18],> 100 µM
same,TGI,[19],> 100 µM
same,TGI,[20],> 100 µM
same,TGI,[21],> 100 µM
same,TGI,[22],> 100 µM
same,TGI,[23],> 100 µM
same,TGI,[24],> 100 µM
same,TGI,[25],> 100 µM
same,TGI,[26],> 100 µM
same,TGI,[27],> 100 µM
same,TGI,[28],> 100 µM
same,TGI,[29],> 100 µM
same,TGI,[30],> 100 µM
same,TGI,[31],> 100 µM
same,TGI,[32],> 100 µM
same,TGI,[33],> 100 µM
same,TGI,[34],> 100 µM
same,TGI,[35],> 100 µM
same,TGI,[36],88.8 µM
same,TGI,[37],> 100 µM
same,TGI,[38],62.2 µM
same,TGI,[39],> 100 µM
same,TGI,[40],> 100 µM
same,TGI,[41],> 100 µM
same,TGI,[42],31.6 µM
same,TGI,[43],49.8 µM
same,TGI,[44],40.6 µM
same,TGI,[45],> 100 µM
same,TGI,[46],> 100 µM
same,TGI,[47],43 µM
same,TGI,[48],> 100 µM
same,TGI,[49],46.8 µM
same,TGI,[50],40.4 µM
same,TGI,[51],> 100 µM
same,TGI,[52],> 100 µM
same,TGI,[53],> 100 µM
same,TGI,[54],92.6 µM
same,TGI,[55],50.2 µM
same,TGI,[56],> 100 µM
same,TGI,[57],98.2 µM
same,TGI,[58],> 100 µM

# Source: PubChem BioAssay (NCI)
